Assay [1] addresses T7 RNA polymerase (Escherichia phage T7, UniProt P00573). The assay is described as follows: In vitro transcription of luciferase mRNA by co-transcriptional capping (IVT yield). Type of assay: biochemical. The note with it: 8 mM cap analog, luciferase DNA template, 37° C. 2 to 3 hours; compared with Cleancap AG(3′OMe) designated as 100%; FIG. 4. As for the experimental part: For the mRNA synthesis reaction using the compounds prepared in Example 15 and Example 16 above, a transcription buffer was used, and the composition of the buffer was Tris-Cl buffer: spermidine:Triton X=4:2:1 volume ratio. In the buffer, 50 μg/ml luciferase DNA transcription template, 10 mM ATP, 10 mM CTP, 10 mM UTP, 2 mM GTP, and 8 mM compound prepared in Example 15 or Example 16, 300 KU/ml T7 RNA polymerase, 2 KU/ml RNase inhibitor protein, 20 U/ml inorganic pyrophosphatase, 40 mM Tris-HCl (pH 8.0), 50 mM magnesium chloride, and 10 mM dithiothreitol were added to prepare the transcription reaction mixture. […] The concentration of the purified mRNA sample was determined using a fluorometer instrument, and the total amount of mRNA was calculated by multiplying the concentration and reaction volume. Then, in order to derive the mRNA in vitro transcription (IVT) yield, the total amount of mRNA synthesized using each different cap analog was divided by the input L-DNA content to quantify the IVT yield value according to the cap analog. […] This may be calculated using [Equation 1] below. […]

The test system of assay [2] is HeLa cells. The assay is described as follows: Translation of luciferase mRNA in HeLa cells (luciferase activity after transfection of capped mRNA). The format is cell-based. As for the experimental part: The translational activity of the mRNAs generated by the IVT reactions of each Example 15, Example 16, and ^7mG(3OMe)pppA(2′OMe)pG was evaluated by transfecting the corresponding mRNAs into the HeLa cell line. All mRNAs synthesized through IVT reaction before transfection were subjected to poly(A) tailing process. Specifically, IVT mRNA, whose mRNA synthesis reaction was terminated by adding DNase 1, was mixed with IVT mRNA:10× poly (A) polymerase reaction buffer:10 mM ATP solution:poly (A) polymerase enzyme (4 KU/ml):nuclease-free water=20:10:10:2:58 ratio (volume/volume), reacted at 37° C. for 30 minutes to 1 hour, and then incubated at 4° C. to terminate the reaction. […] Cells were harvested 6, 12, and 24 hours after transfection, and luciferase activity was measured using Renilla-Glo™ Luciferase Assay kit (Promega catalog #E2710) according to the manufacturer's recommendations: After removing the medium from the transfected cells, 50 μl phosphate buffer solution (PBS) was added. Afterwards, 50 μl of Renilla-Glo™ Luciferase Assay reagent was added, mixed, and incubated for 10 minutes, and then luciferase activity was detected using Varioskan LUX Multimode Microplate Reader (Thermo Fisher) (FIG. 5). […]

T7 RNA polymerase, sequence (P00573 whole entry): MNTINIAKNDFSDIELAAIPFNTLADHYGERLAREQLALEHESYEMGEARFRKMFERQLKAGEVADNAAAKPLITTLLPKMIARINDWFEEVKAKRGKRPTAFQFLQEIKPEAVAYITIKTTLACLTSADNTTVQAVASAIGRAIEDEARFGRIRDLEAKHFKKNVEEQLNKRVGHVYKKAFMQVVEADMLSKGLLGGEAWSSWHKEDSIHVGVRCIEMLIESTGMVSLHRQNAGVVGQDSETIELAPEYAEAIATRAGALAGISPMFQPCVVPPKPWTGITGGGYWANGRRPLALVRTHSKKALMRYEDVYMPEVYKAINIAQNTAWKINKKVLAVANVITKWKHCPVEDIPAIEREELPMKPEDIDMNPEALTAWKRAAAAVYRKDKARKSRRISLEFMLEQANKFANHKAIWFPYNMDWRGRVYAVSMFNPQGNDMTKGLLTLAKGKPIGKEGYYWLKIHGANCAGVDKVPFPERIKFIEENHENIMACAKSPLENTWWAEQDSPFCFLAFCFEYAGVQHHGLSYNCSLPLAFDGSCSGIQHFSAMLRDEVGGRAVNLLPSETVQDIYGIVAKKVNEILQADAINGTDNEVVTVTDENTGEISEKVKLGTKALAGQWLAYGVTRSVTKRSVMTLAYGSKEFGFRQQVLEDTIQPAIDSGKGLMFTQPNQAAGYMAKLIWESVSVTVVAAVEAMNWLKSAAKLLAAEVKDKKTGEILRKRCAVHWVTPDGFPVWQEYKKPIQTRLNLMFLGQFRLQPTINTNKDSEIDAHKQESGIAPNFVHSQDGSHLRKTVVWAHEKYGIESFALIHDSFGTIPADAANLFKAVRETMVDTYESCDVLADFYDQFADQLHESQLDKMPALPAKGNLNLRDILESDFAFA

For `CO[C@@H]1[C@H](OP(=O)(O)OC[C@H]2O[C@@H](n3cnc4c(=O)[nH]c(N)nc43)[C@H](O)[C@@H]2O)[C@@H](COP(=O)(O)OP(=O)(O)OP(=O)(O)OC[C@H]2O[C@@H](n3c[n+](C)c4c(=O)[nH]c(N)nc43)[C@H](OC(=O)C(C)(C)C)[C@@H]2OC(=O)C(C)(C)C)O[C@H]1n1cnc2c(N)ncnc21.[Na+].[Na+].[Na+]` [Example 15, ^7mG(2′,3′ Pivaloyl)pppA(2′ OMe)pG], the “IVT yield of mRNA relative to ^7mG(3′OMe)pppA(2′OMe)pG” value in assay [1] is reported as “almost the same yield”.
With “^7mG(2′ or 3′monopivaloyl)pppA(2′OMe)pG [Example 16]”, in assay [1], the “IVT yield of mRNA relative to ^7mG(3′OMe)pppA(2′OMe)pG” value is recorded as “almost the same yield”. Further, the “luciferase activity of mRNA capped with the compound” value in assay [2] (100 ng mRNA per well, 6 to 24 hours after transfection, compared with mRNA capped with ^7mG(3′OMe)pppA(2′OMe)pG, FIG. 5) is listed as “higher luciferase activity”. The “residual rate of protein expressed by capped mRNA” value in assay [2] (24 hours after transfection, inferred, compared with ^7mG(3′OMe)pppA(2′OMe)pG, FIG. 6) is listed as “higher”.

Source of the values: patent US20250011826A1, “mRNA CAP ANALOGUE AND USE THEREOF” (HANMI FINE CHEMICAL CO., LTD., priority 2021, published 2025).
